{
  "source": "paper PMC12280724",
  "about": "(Frontiers in Pharmacology, 2025)",
  "experiment": "In vivo biodistribution of [^99mTc]Tc-carvedilol in healthy Swiss albino mice",
  "conditions": "for [^99mTc]Tc-carvedilol percentages of injected dose per Gram organ: i.v. tail vein",
  "excerpt": "For biodistribution and receptor occupancy studies, 24 healthy adult Swiss albino mice (12 males and 12 females, aged 10–12 weeks, weighing 25–30 g) were obtained from the Egyptian National Research Center. Mice outside the 25–30 g weight range were excluded to ensure consistency in the biodistribution outcomes. Prior to the study, animals were housed in groups of four with ad libitum access to food and water and underwent a 2-week acclimatization period. After this adaptation phase, the mice were randomly assigned to the study groups using the lot-drawing method.\nGiven ^99mTc’s physical half-life of approximately 6 h, shorter imaging and sampling intervals are generally preferred to maximize radioactive signal fidelity and minimize decay-related variability. At 24 h post-injection, the residual ^99mTc activity could fall below quantifiable thresholds, potentially compromising the precision of biodistribution data. To prevent this, all data collection was restricted to early post-injection intervals—specifically […]—when radioactivity levels remain within optimal detection ranges for gamma counting. By omitting the 24 h time point altogether, the study design ensured that the radiotracer signal would be robust enough to yield statistically reliable biodistribution profiles without being confounded by the isotope’s exponential decay. Additionally, prior pilot studies were conducted to empirically determine the time window during which the radiochemical integrity and quantification signal-to-noise ratio remained analytically valid. These informed the exclusion of late-phase sampling and reinforced confidence in the reliability of kinetic data collected within the defined 6 h observation window. Therefore, six mice were euthanized at each selected time point via standardized cervical dislocation performed by trained personnel in accordance with institutional animal care guidelines. The procedure followed the AVMA Guidelines for the Euthanasia of Animals ([Kirkwood, 2013]), ensuring it was rapid, humane, and reproducible. To ensure procedural consistency, all cervical dislocations were performed by the same experienced researcher, following pre-established protocols that involved correct animal positioning, anatomical landmark identification, and verification of death through cessation of heartbeat and respiration. Immediately postmortem, body weight was recorded, and blood was collected via cardiac puncture.\nOrgan harvesting included the collection of the heart, liver, lungs, kidneys, spleen, stomach, intestines, muscle (right leg), bone, and brain. Following dissection, tissues were gently rinsed with isotonic saline to remove residual blood, promptly weighed, kept at low temperatures, and immediately subjected to gamma counting to preserve radiochemical integrity and avoid post-collection decay artifacts. No storage or freezing was used to prevent degradation or leakage of [^99mTc]Tc-carvedilol. Sample processing occurred in a shielded, on-site laboratory adjacent to the dissection area, ensuring minimal delay—typically less than 2 to 3 minutes—between collection and measurement.\nTo ensure methodological rigor and reproducibility, both experimental and computational components of the study were supported by a structured statistical framework. A total of 24 healthy albino mice (12 males, 12 females), aged 10–12 weeks and weighing 25 ± 3 g, were selected based on uniform health status, age, and weight to minimize inter-animal variability. Animals were maintained under controlled laboratory conditions (12-h light/dark cycle, standardized humidity, and temperature) with unrestricted access to food and water. For biodistribution analysis, animals were randomly assigned to four experimental groups, each consisting of six mice, each representing a distinct post-injection time point (15, 30, 60, and 120 min). […]",
  "note": "Several values for one entry are separate records, joined by “and”; a condition that tells them apart may be missing. Equal values may be shown once.",
  "data": [
    {"smiles": "COc1ccccc1OCC[N]1CC(COc2cccc3[nH]c4ccccc4c23)[O][99Tc]12(=[O])[O]C(COc1cccc3[nH]c4ccccc4c13)C[N]2CCOc1ccccc1OC", "note": "(racemic) [[^99mTc]Tc-carvedilol]", "values": [
      {"measurement": "[^99mTc]Tc-carvedilol percentages of injected dose per Gram organ", "setting": "Kidneys, 30 min post-injection", "value": "32.753 ± 0.345 % ID/g organ and 32.753 ± 0.345 ^a % ID/g organ"},
      {"measurement": "[^99mTc]Tc-carvedilol percentages of injected dose per Gram organ", "setting": "Kidneys, 60 min post-injection", "value": "24.392 ± 0.345", "unit": "% ID/g organ"},
      {"measurement": "[^99mTc]Tc-carvedilol percentages of injected dose per Gram organ", "setting": "Kidneys, 120 min post-injection", "value": "29.284 ± 0.012", "unit": "% ID/g organ"},
      {"measurement": "Residual [^99mTc]Tc-carvedilol percentages of injected dose per Gram in non-targeted organs", "setting": "Liver row, 15 min post-injection", "value": "92.740 ± 0.03", "unit": "% ID/g"},
      {"measurement": "Residual [^99mTc]Tc-carvedilol percentages of injected dose per Gram in non-targeted organs", "setting": "Liver row, 30 min post-injection", "value": "95.149 ± 0.01", "unit": "% ID/g"},
      {"measurement": "Residual [^99mTc]Tc-carvedilol percentages of injected dose per Gram in non-targeted organs", "setting": "Liver row, 120 min post-injection", "value": "93.895 ± 0.04", "unit": "% ID/g"},
      {"measurement": "[^99mTc]Tc-carvedilol percentages of injected dose per Gram organ", "setting": "Liver, 15 min post-injection", "value": "7.255 ± 0.023", "unit": "% ID/g organ"},
      {"measurement": "[^99mTc]Tc-carvedilol percentages of injected dose per Gram organ", "setting": "Liver, 30 min post-injection", "value": "4.841 ± 0.568", "unit": "% ID/g organ"},
      {"measurement": "[^99mTc]Tc-carvedilol percentages of injected dose per Gram organ", "setting": "Liver, 120 min post-injection", "value": "6.045 ± 1.020", "unit": "% ID/g organ"},
      {"measurement": "Residual [^99mTc]Tc-carvedilol percentages of injected dose per Gram in non-targeted organs", "setting": "Lung row, 15 min post-injection", "value": "98.710 ± 0.01", "unit": "% ID/g"},
      {"measurement": "Residual [^99mTc]Tc-carvedilol percentages of injected dose per Gram in non-targeted organs", "setting": "Lung row, 30 min post-injection", "value": "92.205 ± 0.01", "unit": "% ID/g"},
      {"measurement": "Residual [^99mTc]Tc-carvedilol percentages of injected dose per Gram in non-targeted organs", "setting": "Lung row, 60 min post-injection", "value": "95.410 ± 0.00", "unit": "% ID/g"},
      {"measurement": "Residual [^99mTc]Tc-carvedilol percentages of injected dose per Gram in non-targeted organs", "setting": "Lung row, 120 min post-injection", "value": "95.371 ± 0.04", "unit": "% ID/g"},
      {"measurement": "[^99mTc]Tc-carvedilol percentages of injected dose per Gram organ", "setting": "Lung, 15 min post-injection", "value": "1.290 ± 0.232", "unit": "% ID/g organ"},
      {"measurement": "[^99mTc]Tc-carvedilol percentages of injected dose per Gram organ", "setting": "Lung, 30 min post-injection", "value": "7.795 ± 0.060", "unit": "% ID/g organ"},
      {"measurement": "[^99mTc]Tc-carvedilol percentages of injected dose per Gram organ", "setting": "Lung, 60 min post-injection", "value": "4.590 ± 0.000", "unit": "% ID/g organ"},
      {"measurement": "[^99mTc]Tc-carvedilol percentages of injected dose per Gram organ", "setting": "Lung, 120 min post-injection", "value": "4.579 ± 0.111", "unit": "% ID/g organ"},
      {"measurement": "Residual [^99mTc]Tc-carvedilol percentages of injected dose per Gram in non-targeted organs", "setting": "Muscle row, 15 min post-injection", "value": "99.309 ± 0.02", "unit": "% ID/g"},
      {"measurement": "Residual [^99mTc]Tc-carvedilol percentages of injected dose per Gram in non-targeted organs", "setting": "Muscle row, 30 min post-injection", "value": "99.727 ± 0.01", "unit": "% ID/g"},
      {"measurement": "Residual [^99mTc]Tc-carvedilol percentages of injected dose per Gram in non-targeted organs", "setting": "Muscle row, 60 min post-injection", "value": "99.321 ± 0.02", "unit": "% ID/g"},
      {"measurement": "Residual [^99mTc]Tc-carvedilol percentages of injected dose per Gram in non-targeted organs", "setting": "Muscle row, 120 min post-injection", "value": "98.449 ± 0.03", "unit": "% ID/g"},
      {"measurement": "[^99mTc]Tc-carvedilol percentages of injected dose per Gram organ", "setting": "Muscle, 15 min post-injection", "value": "0.671 ± 0.195", "unit": "% ID/g organ"},
      {"measurement": "[^99mTc]Tc-carvedilol percentages of injected dose per Gram organ", "setting": "Muscle, 30 min post-injection", "value": "0.263 ± 0.215", "unit": "% ID/g organ"},
      {"measurement": "[^99mTc]Tc-carvedilol percentages of injected dose per Gram organ", "setting": "Muscle, 60 min post-injection", "value": "0.659 ± 0.217", "unit": "% ID/g organ"},
      {"measurement": "[^99mTc]Tc-carvedilol percentages of injected dose per Gram organ", "setting": "Muscle, 120 min post-injection", "value": "1.521 ± 0.201", "unit": "% ID/g organ"},
      {"measurement": "Residual [^99mTc]Tc-carvedilol percentages of injected dose per Gram in non-targeted organs", "setting": "Spleen row, 15 min post-injection", "value": "98.118 ± 0.02", "unit": "% ID/g"},
      {"measurement": "Residual [^99mTc]Tc-carvedilol percentages of injected dose per Gram in non-targeted organs", "setting": "Spleen row, 30 min post-injection", "value": "95.816 ± 0.01", "unit": "% ID/g"},
      {"measurement": "Residual [^99mTc]Tc-carvedilol percentages of injected dose per Gram in non-targeted organs", "setting": "Spleen row, 60 min post-injection", "value": "93.319 ± 0.05", "unit": "% ID/g"},
      {"measurement": "Residual [^99mTc]Tc-carvedilol percentages of injected dose per Gram in non-targeted organs", "setting": "Spleen row, 120 min post-injection", "value": "97.701 ± 0.02", "unit": "% ID/g"},
      {"measurement": "[^99mTc]Tc-carvedilol percentages of injected dose per Gram organ", "setting": "Spleen, 15 min post-injection", "value": "1.852 ± 0.151", "unit": "% ID/g organ"},
      {"measurement": "[^99mTc]Tc-carvedilol percentages of injected dose per Gram organ", "setting": "Spleen, 30 min post-injection", "value": "4.174 ± 0.019", "unit": "% ID/g organ"},
      {"measurement": "[^99mTc]Tc-carvedilol percentages of injected dose per Gram organ", "setting": "Spleen, 60 min post-injection", "value": "6.631 ± 0.019", "unit": "% ID/g organ"},
      {"measurement": "[^99mTc]Tc-carvedilol percentages of injected dose per Gram organ", "setting": "Spleen, 120 min post-injection", "value": "2.279 ± 0.126", "unit": "% ID/g organ"},
      {"measurement": "Residual [^99mTc]Tc-carvedilol percentages of injected dose per Gram in non-targeted organs", "setting": "Stomach row, 15 min post-injection", "value": "98.807 ± 0.01", "unit": "% ID/g"},
      {"measurement": "Residual [^99mTc]Tc-carvedilol percentages of injected dose per Gram in non-targeted organs", "setting": "Stomach row, 30 min post-injection", "value": "98.433 ± 0.04", "unit": "% ID/g"},
      {"measurement": "Residual [^99mTc]Tc-carvedilol percentages of injected dose per Gram in non-targeted organs", "setting": "Stomach row, 60 min post-injection", "value": "95.706 ± 0.03", "unit": "% ID/g"},
      {"measurement": "Residual [^99mTc]Tc-carvedilol percentages of injected dose per Gram in non-targeted organs", "setting": "Stomach row, 120 min post-injection", "value": "97.717 ± 0.06", "unit": "% ID/g"},
      {"measurement": "[^99mTc]Tc-carvedilol percentages of injected dose per Gram organ", "setting": "Stomach, 15 min post-injection", "value": "1.193 ± 0.201", "unit": "% ID/g organ"},
      {"measurement": "[^99mTc]Tc-carvedilol percentages of injected dose per Gram organ", "setting": "Stomach, 30 min post-injection", "value": "1.524 ± 0.259", "unit": "% ID/g organ"},
      {"measurement": "[^99mTc]Tc-carvedilol percentages of injected dose per Gram organ", "setting": "Stomach, 60 min post-injection", "value": "4.263 ± 0.259", "unit": "% ID/g organ"},
      {"measurement": "[^99mTc]Tc-carvedilol percentages of injected dose per Gram organ", "setting": "Stomach, 120 min post-injection", "value": "2.239 ± 0.065", "unit": "% ID/g organ"}
    ]}
  ]
}
